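Following 48 hours of exposure in 96-well plates, responses at five concentrations were used to interpolate endpoints linearly. GI50 marks 50% less growth.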 The source made the active and inactive calls. Cut-off read from the data, not from the text of the source: active = GI50 up to about 1.1 µM and inactive = higher.
Tests used:
Experiment in all cases: NCI-60 cell line screen, 48 h
HCT-15 = system: HCT-15
SK-MEL-5 = system: SK-MEL-5
A549 = system: A549
SK-MEL-2 = system: SK-MEL-2
MDA-MB-231 = system: MDA-MB-231
SF-295 = system: SF-295
OVCAR-5 = system: OVCAR-5
EKVX = system: EKVX
CAKI-1 = system: CAKI-1
HCT-116 = system: HCT-116
NCI-H226 = system: NCI-H226
K562 = system: K562
SNB-19 = system: SNB-19
CCRF-CEM = system: CCRF-CEM
PC-3 = system: PC-3
OVCAR-4 = system: OVCAR-4
UO-31 = system: UO-31
OVCAR-3 = system: OVCAR-3
786-0 = system: 786-0
UACC-62 = system: UACC-62
MOLT-4 = system: MOLT-4
Hs-578T = system: Hs-578T
SN12C = system: SN12C
SW-620 = system: SW-620
TK-10 = system: TK-10
HOP-92 = system: HOP-92
HOP-62 = system: HOP-62
RXF 393 = system: RXF 393
ACHN = system: ACHN
HCC 2998 = system: HCC 2998
SK-OV-3 = system: SK-OV-3
M14 = system: M14
DU-145 = system: DU-145
LOX IMVI = system: LOX IMVI
KM12 = system: KM12
BT-549 = system: BT-549
COLO 205 = system: COLO 205
IGROV-1 = system: IGROV-1
MCF7 = system: MCF7
HT-29 = system: HT-29
SK-MEL-28 = system: SK-MEL-28
UACC-257 = system: UACC-257
MDA-N = system: MDA-N
U-251 = system: U-251
OVCAR-8 = system: OVCAR-8
SF-268 = system: SF-268
A498 = system: A498
T47D = system: T47D
MDA-MB-435 = system: MDA-MB-435
NCI/ADR-RES = system: NCI/ADR-RES
NCI-H23 = system: NCI-H23
SNB-75 = system: SNB-75
RPMI-8226 = system: RPMI-8226
NCI-H522 = system: NCI-H522
Malme-3M = system: Malme-3M
HL-60 = system: HL-60
NCI-H460 = system: NCI-H460

Cc1ccsc1/C=N/Nc1nc2ccccc2s1
GI50 (HCT-15): 50.5 µM | GI50 (SK-MEL-5): 20.9 µM (inactive) | GI50 (A549): 16.3 µM (inactive) | GI50 (SK-MEL-2): 26.2 µM (inactive) | GI50 (MDA-MB-231): 12.8 µM (inactive) | GI50 (SF-295): 10.6 µM (inactive) | GI50 (OVCAR-5): 40.9 µM (inactive) | GI50 (EKVX): 19.3 µM (inactive) | GI50 (CAKI-1): 15.5 µM (inactive) | GI50 (HCT-116): 11.2 µM (inactive) | GI50 (NCI-H226): 19.4 µM (inactive) | GI50 (K562): 14.7 µM (inactive) | GI50 (SNB-19): 12.8 µM (inactive) | GI50 (CCRF-CEM): 15.4 µM (inactive) | GI50 (PC-3): 14.3 µM (inactive) | GI50 (OVCAR-4): 19.7 µM (inactive) | GI50 (UO-31): 20.8 µM (inactive) | GI50 (OVCAR-3): 12.9 µM (inactive) | GI50 (786-0): 12.3 µM (inactive) | GI50 (UACC-62): 27.9 µM (inactive) | GI50 (MOLT-4): 16.2 µM (inactive) | GI50 (Hs-578T): 23.2 µM (inactive) | GI50 (SN12C): 13.3 µM (inactive) | GI50 (SW-620): 25 µM (inactive) | GI50 (TK-10): 13.9 µM (inactive) | GI50 (HOP-92): 13.4 µM (inactive) | GI50 (HOP-62): 8.99 µM (inactive) | GI50 (RXF 393): 6.27 µM (inactive) | GI50 (ACHN): 14 µM (inactive) | GI50 (HCC 2998): 63.2 µM (inactive) | GI50 (SK-OV-3): 12.5 µM (inactive) | GI50 (M14): 28.1 µM (inactive) | GI50 (DU-145): 26.8 µM (inactive) | GI50 (LOX IMVI): 23.9 µM (inactive) | GI50 (KM12): 24.2 µM (inactive) | GI50 (BT-549): 71.3 µM (inactive) | GI50 (COLO 205): 35.2 µM (inactive) | GI50 (IGROV-1): 11 µM (inactive) | GI50 (MCF7): 11.5 µM (inactive) | GI50 (HT-29): 34.6 µM (inactive) | GI50 (SK-MEL-28): 25.1 µM (inactive) | GI50 (UACC-257): 20.4 µM (inactive) | GI50 (MDA-N): 34.8 µM (inactive) | GI50 (U-251): 13.5 µM (inactive) | GI50 (OVCAR-8): 23 µM (inactive) | GI50 (SF-268): 21.4 µM (inactive) | GI50 (A498): 2.35 µM (inactive) | GI50 (T47D): 48.8 µM (inactive) | GI50 (MDA-MB-435): 70.1 µM (inactive) | GI50 (NCI/ADR-RES): 21.4 µM (inactive) | GI50 (NCI-H23): 31.8 µM (inactive) | GI50 (SNB-75): 20.5 µM (inactive) | GI50 (RPMI-8226): 19.4 µM (inactive)

C[C@]1(S(=O)(=O)c2ccccc2)C[C@H]2N(Cc3ccccc3)[C@@H]1CCC21OCCO1
GI50 (HCT-15): 63.1 µM | GI50 (SK-MEL-5): 75.2 µM (inactive) | GI50 (A549): 86.1 µM (inactive) | GI50 (SK-MEL-2): > 100 µM (inactive) | GI50 (MDA-MB-231): > 100 µM (inactive) | GI50 (SF-295): 90.4 µM (inactive) | GI50 (OVCAR-5): > 100 µM (inactive) | GI50 (EKVX): > 100 µM (inactive) | GI50 (CAKI-1): > 100 µM (inactive) | GI50 (HCT-116): > 100 µM (inactive) | GI50 (K562): > 100 µM (inactive) | GI50 (SNB-19): > 100 µM (inactive) | GI50 (CCRF-CEM): 49.1 µM (inactive) | GI50 (NCI-H522): 72.6 µM (inactive) | GI50 (Malme-3M): > 100 µM (inactive) | GI50 (PC-3): 70.5 µM (inactive) | GI50 (OVCAR-4): 36.3 µM (inactive) | GI50 (UO-31): > 100 µM (inactive) | GI50 (OVCAR-3): > 100 µM (inactive) | GI50 (786-0): > 100 µM (inactive) | GI50 (UACC-62): > 100 µM (inactive) | GI50 (MOLT-4): 30.8 µM (inactive) | GI50 (Hs-578T): > 100 µM (inactive) | GI50 (SN12C): > 100 µM (inactive) | GI50 (SW-620): 94.6 µM (inactive) | GI50 (HOP-92): 88.1 µM (inactive) | GI50 (HOP-62): > 100 µM (inactive) | GI50 (RXF 393): > 100 µM (inactive) | GI50 (ACHN): > 100 µM (inactive) | GI50 (SK-OV-3): > 100 µM (inactive) | GI50 (M14): > 100 µM (inactive) | GI50 (DU-145): > 100 µM (inactive) | GI50 (HL-60): 13.6 µM (inactive) | GI50 (LOX IMVI): > 100 µM (inactive) | GI50 (KM12): 58.2 µM (inactive) | GI50 (BT-549): > 100 µM (inactive) | GI50 (COLO 205): 50.5 µM (inactive) | GI50 (IGROV-1): > 100 µM (inactive) | GI50 (MCF7): 78.9 µM (inactive) | GI50 (NCI-H460): 67.9 µM (inactive) | GI50 (HT-29): 58.6 µM (inactive) | GI50 (SK-MEL-28): > 100 µM (inactive) | GI50 (UACC-257): 22.3 µM (inactive) | GI50 (MDA-N): > 100 µM (inactive) | GI50 (U-251): > 100 µM (inactive) | GI50 (OVCAR-8): > 100 µM (inactive) | GI50 (SF-268): > 100 µM (inactive) | GI50 (T47D): 41.6 µM (inactive) | GI50 (MDA-MB-435): > 100 µM (inactive) | GI50 (NCI/ADR-RES): 46.9 µM (inactive) | GI50 (NCI-H23): 60.5 µM (inactive) | GI50 (SNB-75): > 100 µM (inactive)
